In patent US20190093170A1, “USE OF TRANSLATIONAL PROFILING TO IDENTIFY TARGET MOLECULES FOR THERAPEUTIC TREATMENT” (THE REGENTS OF THE UNIVERSITY OF CALIFORNIA, priority 2013, published 2019):

Test system: PC3 human prostate cancer cells
Assay: Ribosome profiling: translational efficiency (ribosome footprint vs RNA-seq read density);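 note: Per-gene footprint-to-mRNA density ratio averaged per codon over the coding sequence, scaled so the median gene equals 1.0 after excluding regulated genes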
Assay type: cell-based
Settings: for Rapamycin TrlEff: 3-hour treatment with rapamycin (50 nM) in PC3 cells
Description: Given the critical role for mTOR in prostate cancer, PC3 human prostate cancer cells, in which mTOR is constitutively hyperactivated, were used to delineate translationally controlled gene expression networks upon complete or partial mTOR inhibition. Ribosome profiling was optimized to assess quantitatively ribosome occupancy genome-wide in cancer cells.
Cells were subsequently treated with cycloheximide (100 μg ml^−1; Sigma) and detergent lysis was performed in the dish. The lysate was treated with DNase and clarified, and a sample was taken for RNA-seq analysis. Lysates were subjected to ribosome footprinting by nuclease treatment. Ribosome-protected fragments were purified, and deep sequencing libraries were generated from these fragments, as well as from poly(A) mRNA purified from non-nuclease-treated lysates. These libraries were analyzed by sequencing on an Illumina GAII.
Ribosome footprint and RNA-seq sequencing reads were aligned against a library of transcripts from the UCSC Known Genes database GRCh37/hg19. The first 25 nucleotides of each read were aligned using Bowtie and this initial alignment was then extended to encompass the full fragment-derived portion of the sequencing read while excluding the linker sequence. Read density profiles were then constructed for the canonical transcript of each gene, using only reads with 0 or 1 total mismatches between the read sequence and the reference sequence, comprised of the transcript fragment followed by the linker sequence. Footprint reads were assigned to an A site nucleotide at position +15 to +17 of the alignment, based on the total fragment length; mRNA reads were assigned to the first nucleotide of the alignment. The average read density per codon was then computed for the coding sequence of each transcript, excluding the first 15 and last 5 codons, which can display atypical ribosome accumulation.
Average read density was used as a measure of mRNA abundance (RNA-seq reads) and of protein synthesis (ribosome profiling reads). For most analyses, genes were filtered to require at least 256 reads in the relevant RNA-seq samples. Translational efficiency was computed as the ratio of ribosome footprint read density to RNA-seq read density, scaled to normalize the translational efficiency of the median gene to 1.0 after excluding regulated genes (log 2 fold-change+1.5 after normalizing for the all-gene median). Changes in protein synthesis, mRNA abundance and translational efficiency were similarly computed as the ratio of read densities between different samples, normalized to give the median gene a ratio of 1.0. This normalization corrects for differences in the absolute number of sequencing reads obtained for different libraries.

With `CO[C@H]1C[C@@H]2CC[C@@H](C)[C@@](O)(O2)C(=O)C(=O)N2CCCC[C@H]2C(=O)O[C@H]([C@H](C)C[C@@H]2CC[C@@H](O)[C@H](OC)C2)CC(=O)[C@H](C)/C=C(\C)[C@@H](O)[C@@H](OC)C(=O)[C@H](C)C[C@H](C)/C=C/C=C/C=C/1C` [Rapamycin, rapamycin] the “Rapamycin TrlEff” value (gene ACD) was 2.06, the TrlEff (gene ACTG1) was −0.07 and the TrlEff (gene AGRN) was 0.51. It also gave a TrlEff (gene AHCY) of −0.23, a TrlEff (gene ALKBH7) of 0.28 and a TrlEff (gene AP2A1) of −0.04. For the same compound, the TrlEff (gene ARD1A) was 0.01, the TrlEff (gene ATP5G2) was −0.28 and the “Rapamycin TrlEff” value (gene C17orf28) was 1.66. For the same compound, the TrlEff (gene C21orf66) was −0.09, the “Rapamycin TrlEff” value (gene CCNA1) was 1.81 and the TrlEff (gene CCNI) was −0.45. It also gave a TrlEff (gene CD44) of −0.46, a TrlEff (gene CIRBP) of 0.10 and a TrlEff (gene CLPTM1) of 0.26. The TrlEff (gene COL6A2) was 0.43, the TrlEff (gene CRTAP) was −1.17 and the “Rapamycin TrlEff” value (gene DDX51) was 1.68. The “Rapamycin TrlEff” value (gene DGCR2) was 1.69, the TrlEff (gene ECSIT) was 0.41 and the “Rapamycin TrlEff” value (gene EEF1A1) was −1.57. It also gave a TrlEff (gene EEF1A2) of −0.03, a TrlEff (gene EEF1D) of −0.84 and a TrlEff (gene EEF1G) of −1.15. It also gave a TrlEff (gene EEF2) of −1.12, a TrlEff (gene EIF3H) of −0.79 and a TrlEff (gene EIF3L) of −0.85. The TrlEff (gene EIF4B) was −1.21, the TrlEff (gene EVPL) was 0.30 and the TrlEff (gene FAM83H) was 0.71. The TrlEff (gene FAM128B) was 0.27, the TrlEff (gene FASN) was 0.47 and the TrlEff (gene GAPDH) was −0.27. For the same compound, the TrlEff (gene GLTSCR2) was −0.68, the TrlEff (gene GNB2L1) was −0.77 and the “Rapamycin TrlEff” value (gene GTPBP3) was 1.56. For the same compound, the TrlEff (gene HNRNPA1) was −0.86, the TrlEff (gene HSPA8) was −0.46 and the TrlEff (gene IMPDH2) was −0.39. For the same compound, the TrlEff (gene LAMA5) was 0.87, the TrlEff (gene LMF2) was 0.39 and the “Rapamycin TrlEff” value (gene MAPK6) was −2.43. The “Rapamycin TrlEff” value (gene MAPKAPK2) was 1.50, the TrlEff (gene MTA1) was −0.05 and the TrlEff (gene NCLN) was 0.67. For the same compound, the “Rapamycin TrlEff” value (gene NFATC21P) was 1.54, the “Rapamycin TrlEff” value (gene NR2F1) was 1.94 and the TrlEff (gene PABPC1) was −1.44. For the same compound, the TrlEff (gene PABPC4) was −0.80, the TrlEff (gene PACS1) was 0.04 and the TrlEff (gene PFDN5) was −0.51. It also gave a TrlEff (gene PGLS) of 0.20, a TrlEff (gene PGM1) of −0.55 and a TrlEff (gene PNKP) of 0.74. For the same compound, the “Rapamycin TrlEff” value (gene PRKD3) was −1.72, the TrlEff (gene PTGES2) was 0.52 and the TrlEff (gene RABGGTB) was −0.84. The “Rapamycin TrlEff” value (gene RBPJ) was −1.58, the TrlEff (gene RPL3) was −1.08 and the TrlEff (gene RPL4) was −0.85. For the same compound, the TrlEff (gene RPL7) was −1.06, the TrlEff (gene RPL7A) was −0.74 and the TrlEff (gene RPL9) was −1.00. The TrlEff (gene RPL10) was −0.79, the TrlEff (gene RPL10A) was −0.94 and the TrlEff (gene RPL11) was −1.08. It also gave a TrlEff (gene RPL12) of −0.94, a TrlEff (gene RPL13) of −0.38 and a TrlEff (gene RPL15) of −0.51. It also gave a TrlEff (gene RPL18A) of −0.82, a TrlEff (gene RPL19) of −0.66 and a TrlEff (gene RPL22) of −0.89. It also gave a TrlEff (gene RPL22L1) of −0.68, a TrlEff (gene RPL24) of −0.63 and a TrlEff (gene RPL26) of −1.11. For the same compound, the TrlEff (gene RPL27) was −0.33, the TrlEff (gene RPL27A) was −0.96 and the “Rapamycin TrlEff” value (gene RPL28) was −1.59. It also gave a TrlEff (gene RPL30) of −0.99, a TrlEff (gene RPL31) of −0.62 and a TrlEff (gene RPL32) of −0.97. The TrlEff (gene RPL34) was −1.12, the TrlEff (gene RPL36A) was −1.11 and the TrlEff (gene RPL37A) was −1.02. For the same compound, the TrlEff (gene RPL39) was −1.65, the “Rapamycin TrlEff” value (gene RPL39) was −2.11 and the TrlEff (gene RPL41) was −1.15. It also gave a TrlEff (gene RPLP0) of −0.42, a TrlEff (gene RPLP2) of −1.18 and a TrlEff (gene RPS2) of −0.56. The TrlEff (gene RPS3) was −0.92, the TrlEff (gene RPS3A) was −1.15 and the TrlEff (gene RPS4X) was −1.15. It also gave a TrlEff (gene RPS5) of −0.77, a TrlEff (gene RPS7) of −0.76 and a TrlEff (gene RPS9) of −0.60. It also gave a TrlEff (gene RPS12) of −1.22, a TrlEff (gene RPS13) of −0.82 and a TrlEff (gene RPS14) of −0.60. It also gave a TrlEff (gene RPS15) of 0.03, a TrlEff (gene RPS15A) of −0.96 and a TrlEff (gene RPS19) of −0.74. For the same compound, the TrlEff (gene RPS20) was −1.35, the TrlEff (gene RPS21) was −0.60 and the TrlEff (gene RPS25) was −0.89. The TrlEff (gene RPS27) was −1.54, the “Rapamycin TrlEff” value (gene RPS27) was −1.55 and the TrlEff (gene RPS27A) was −0.89. For the same compound, the TrlEff (gene RPS28) was −0.80, the “Rapamycin TrlEff” value (gene SDCCAG10) was −1.50 and the TrlEff (gene SLC19A1) was 0.23. For the same compound, the TrlEff (gene TKT) was −0.11, the TrlEff (gene TPT1) was −1.22 and the TrlEff (gene TSC2) was 0.34. For the same compound, the TrlEff (gene UBA52) was −0.22, the “Rapamycin TrlEff” value (gene UBTD2) was −1.64 and the “Rapamycin TrlEff” value (gene UCHL5) was −1.56. The “Rapamycin TrlEff” value (gene VHL) was 1.67, the TrlEff (gene VIM) was −0.40 and the TrlEff (gene YB1) was −0.59.
